# What was measured:
# [1] = tested on: Human umbilical vein endothelial cells (HUVEC); assay: SA β-galactosidase staining of HUVEC grown on glycated collagen (premature senescence); assay type: cell-based; details: for reversal of premature senescence in HUVECs on GC (SA β-galactosidase staining, FIG. 1): HUVECs on GC 3 days, then compound every 12 hours until staining on day 5, GC dilutions 1:3, 1:6, 1:10 in native collagen; for development of premature senescence (SA β-galactosidase staining) in HUVECs grown on GC: ebselen 1 μmol/L, NOHA 0.1 mmol/L, MnTBAP 2.5 μmol/L, applied day 1, 2 hours after plating, added daily, studied day 3
# Protocol: Detection of SA-β-galactosidase was carried out utilizing the histochemical staining method of Dimitri et al, Proc. Natl. Acad. Sci. USA 92, 9363-9367 as modified by Van der Loo, B., et al, Exp. Cell Res. 241, 309-315 (1998). SA β-galactosidase is a known senescence marker. […] This phenomenon occurred in 12 week and 21 week-old diabetic rats, but was undetectable in age-matched Zucker lean rats (0/24 branches examined).
# Human umbilical vein endothelial cells (HUVEC) after four passages were plated on glycated collagen with or without the addition of 0.1 mM ebselen. Application was made on day 1, 2 hours after plating. The extent of SA β-galactosidase staining was evaluated on days 3 and 5 of culture on a glycated or native collagen matrix. In addition, to study the reversibility process, HUVEC were plated on glycated collagen for three days (time sufficient to induce premature senescence), and ebselen was added every 12 hours, starting on day 3, and the cells were examined on day 5.
# These concentrations of compounds were chosen based on preliminary experiments testing effects of a range of concentrations for each compound and selecting the lowest one which was efficient but non-cytotoxic. Ebselen, NOHA, and MnTBAP were each applied on day 1, 2 hours after HUVEC plating, added daily, and cells were studied on day 3. HUVECs grown on both glycated and native matrix were examined for the extent of SA β-galactosidase staining. […] In addition, to test for reversibility of senescence by ebselen, NOHA, or MnTBAP, HUVECs were plated on GC for 3 days (time sufficient to induce premature senescence) and thereafter ebselen (ebs), NOHA, or MnTBAP were added every 12 hours, until SA β-galactosidase staining on day 5. […] Dashed lines show the data obtained in HUVECs cultured on native collagen (NC).
# [2] = tested on: end stage renal disease; assay: Patient with end stage renal disease on chronic hemodialysis treated with ebselen (Example I); assay type: in vivo, human; details: ebselen 1-20 mg/kg thrice/day, 6 months later
# Excerpt: (In some cases, renal biopsy will be performed, which will directly disclose the deposition of AGE in the renal parenchyma and increased proportion of SA-beta-galactosidase-stained endothelial cells). […] In addition, the patient has their arteriovenous fistula revised 3 times due to clotting and stenosis. The patient is also complaining of a non-healing foot ulcer and intermittent claudication, both signs of peripheral vascular disease. […] Similar results are obtained in similar patients who are administered other ebselen-class compounds.
# [3] = tested on: diabetes mellitus; assay: Patient with poorly controlled diabetes mellitus treated with ebselen (Example II); assay type: in vivo, human; details: ebselen 1-20 mg/kg thrice/day, 6 months later
# Protocol: A patient with type I (alternatively, a patient with type 2) diabetes mellitus, past medical history of myocardial infarction, peripheral vascular disease, hypertension, proteinuria and non-healing foot ulcer, is receiving insulin, but experiences poor therapeutic response. Patient's fasting blood glucose level is 200 mg/dl. Additional laboratory findings include elevated Hgb Alc level (8.5%) as well as one of the following signs of AGE accumulation: elevated level of pentosidine (2.3 pmol/mg) or elevated level of Amadori serum albumin (41 U/ml). (In some cases, renal biopsy will be performed, which will directly disclose the deposition of AGE in the renal parenchyma and increased proportion of SA-beta-galactosidase-stained endothelial cells). […] Similar results are obtained in similar patients who are administered other ebselen-class compounds.
# [4] = tested on: endothelial cells from saphenous vein; assay: Artificial heart valve seeded with endothelial cells cultured with ebselen, implanted in patient (Example V); assay type: in vivo, human; details: cells cultured with 10-100 μg/ml at 35° C. for 2-3 weeks; versus patients not receiving ebselen
# Protocol: A person with a defective heart valve is being prepared for a surgical replacement of the valve with a prosthetic device. A saphenous vein is obtained to harvest endothelial cells for expansion and seeding onto the surface of a artificial valve. Endothelial cells are isolated from the graft and cultured in a medium containing ebselen or ebselen-class compound at a concentration of 10-100 μg/ml at 35° C. for 2-3 weeks and cells are seeded onto the valve in the continuous presence of the same concentration of ebselen or ebselen-class compound. Thus prepared, the artificial valve is implanted.
# [5] = tested on: Alzheimer's disease; assay: Patient with Alzheimer's disease treated with ebselen or ebselen-class compounds (Example III); assay type: in vivo, human; details: 1-20 mg/kg thrice/day alone or with antioxidant agents and vitamins; two years later
# Protocol: A person with no known medical conditions has been experiencing a sustained loss of short-term memory for the past three years. Their CBC, electrolytes and other plasma metabolites are within normal range. There is no vitamin deficiency, no abnormalities in liver function tests, and no previous history of cerebro-vascular accidents. […] Based on these findings the patient is diagnosed with Alzheimer's disease. Therapy with ebselen or other ebselen-class compounds is initiated at doses of 1-20 mg/kg thrice/day alone or in combination with antioxidant agents and vitamins (e.g., ascorbate, alpha-tocopherol, vitamin B6, vitamin B12, folate (folic acid), carotenoids, coenzyme Q10, phytoestrogens (including isoflavonoids), butylated hydroxytoluene (BHT), butylated hydroxyanisole (BHA) and n-3 polyunsaturated fatty acids (PUFA)).
# [6] = tested on: endothelial cells from saphenous vein; assay: Artificial vascular graft seeded with endothelial cells cultured with ebselen, implanted in patient (Example VI); assay type: in vivo, human; details: cells cultured with 10-100 μg/ml at 35° C. for 2-3 weeks; versus patients not receiving ebselen
# Protocol: A person with peripheral vascular disease is undergoing an elective femoral-to-popliteal bypass surgery utilizing an artificial vascular graft. A saphenous vein is obtained to harvest endothelial cells for expansion and seed onto the surface of a graft. Endothelial cells are isolated from the graft and cultured in a medium containing ebselen or ebselen-class compound at a concentration of 10-100 μg/ml at 35° C. for 2-3 weeks, and cells are seeded onto the graft in the continuous presence of the same concentration of ebselen or ebselen-class compound. Thus prepared, the vascular graft is implanted.
smiles,measurement,setting,value
N=C(N)NCCC[C@H](N)C(=O)O [L-arginine],"reversal of premature senescence in HUVECs on GC (SA β-galactosidase staining, FIG. 1)",[1],reversed senescence at low but not high concentrations of GC
"O=C(O)c1ccc(/C2=C3\C=CC(=N3)/C(c3ccc(C(=O)O)cc3)=c3/cc/c4[n]3[Mn]([Cl])[n]3c2ccc3/C(c2ccc(C(=O)O)cc2)=C2/C=CC(=N2)\C=4c2ccc(C(=O)O)cc2)cc1 [MnTBAP, [5,10,15,20-tetrakis(4-carboxyphenyl)-porphyrinato]manganese (III) chloride]","reversal of premature senescence in HUVECs on GC (SA β-galactosidase staining, FIG. 1)",[1],able to reverse premature senescence at all dilutions of GC
same,development of premature senescence (SA β-galactosidase staining) in HUVECs grown on GC,[1],completely abolished the development of premature senescence
"N=C(NO)NCCC[C@H](N)C(=O)O [NOHA, N^ω-hydroxyl-L-arginine]","reversal of premature senescence in HUVECs on GC (SA β-galactosidase staining, FIG. 1)",[1],able to reverse premature senescence at all dilutions of GC
same,development of premature senescence (SA β-galactosidase staining) in HUVECs grown on GC,[1],completely abolished the development of premature senescence
"O=c1c2ccccc2[se]n1-c1ccccc1 [ebselen, 2-phenyl-1,2-benzisoselenazol-3(2H)-one]",clinical outcome,[2],"significant subjective improvement of coronary symptoms, renal disease, healing of foot ulcer, normalization of blood pressure"
same,pentosidine after treatment,[2],1.7 pmol/mg
same,Amodori serum albumin after treatment,[2]; before 40 U/ml,30 U/ml
same,clinical outcome,[3],significant subjective improvement of coronary symptoms
same,pentosidine after treatment,[3]; before 2.3 pmol/mg,≤ 1.7 pmol/mg
same,Amadori serum albumin after treatment,[3]; before 41 U/ml,≤ 30 U/ml
same,thrombotic and atheroembolic complications after artificial valve implantation,[4],less thrombotic and atheroembolic complications
same,symptoms related to the memory loss,[5],no deterioration and a partial improvement of symptoms related to the memory loss
same,thrombotic and atheroembolic complications after vascular graft implantation,[6],less thrombotic and atheroembolic complications
same,development of premature senescence (SA β-galactosidase staining) in HUVEC grown on glycated collagen,"[1]; 0.1 mM ebselen applied day 1, 2 hours after plating, evaluated on days 3 and 5",completely abolished the development of premature senescence
same,reversal of premature senescence in HUVEC on glycated collagen,"[1]; HUVEC on glycated collagen 3 days, ebselen added every 12 hours from day 3, examined day 5",able to reverse premature senescence at all dilutions of glycated collagen
same,"reversal of premature senescence in HUVECs on GC (SA β-galactosidase staining, FIG. 1)",[1],able to reverse premature senescence at all dilutions of GC
same,development of premature senescence (SA β-galactosidase staining) in HUVECs grown on GC,[1],completely abolished the development of premature senescence

# — patent publication US20050113427A1, “Use of peroxynirite scavengers or peroxynitrite formation inhibitors that do not diminish nitric oxide synthesis or activity to reverse or prevent premature vascular senescence” (ArgiNOx, Inc., priority 2001, published 2005)
